Reference: US10577378B2, “EIF4A-inhibiting compounds and methods related thereto” (eFFECTOR Therapeutics, Inc., priority 2015, dated 2020)

Test system: MDA-MB-231 human breast cancer cells
Test: Cell proliferation assay (CellTiter-Glo, 72 hours treatment)
Format: cell-based
Conditions: Homo sapiens; MDA-MB-231 cells, 72 hours at 37° C., CellTiter-Glo; read-out: MDA-MB-231 cell proliferation assay (IC50)
Protocol: Human tumor cell lines were cultured in the appropriate media (DMEM and RPMI) supplemented with penicillin G (100 U/ml), streptomycin (100 μg/ml), 10% FBS in a humidified atmosphere of 5% CO2 maintained at 37° C. Exponentially growing cells were seeded at 2,500 cells/well in 96 well plates prior to drug treatment. The following day, cells were treated with either DMSO (vehicle control) or eIF4A inhibitors at the appropriate dose for 72 hours at 37° C. Following compound treatment, cell proliferation was assessed by CellTiter-Glo assay (Promega, Madison Wis.) according to the manufacturer's protocol. Dose-response curves were fitted by non-linear regression (sigmoidal dose response model) using KaleidaGraph (Synergy Software, Reading Pa.) and IC50 values were calculated.
To this end, IC50 values of less than 100 nM are labelled as “+++”, from 100 nM to 1000 nM are labelled as “++”, and greater than 1000 nM are labelled as “+” (NA means “not available”).

Row | SMILES | IC50
1 | CNC[C@H]1[C@@H](O)[C@@]2(O)c3ncc(Cl)cc3O[C@@]2(c2ccc(C#N)cc2)[C@@H]1c1ccccc1 (racemic) [39F, Rac-4-((5aR,6S,7S,8R,8aS)-3-chloro-8,8a-dihydroxy-7-((methylamino)methyl)-6-phenyl-6,7,8,8a-tetrahydro-5aH-cyclopenta[4,5]furo[3,2-b]pyridin-5a-yl)benzonitrile] | 100 to 1000 nM
2 | CN(C)C[C@H]1[C@@H](O)[C@@]2(O)c3ncc(Cl)cc3O[C@@]2(c2ccc(C#N)cc2)[C@@H]1c1ccccc1 (racemic) [40Fb, rac-4-((5aR,6S,7S,8R,8aS)-3-chloro-7-((dimethylamino)methyl)-8,8a-dihydroxy-6-phenyl-6,7,8,8a-tetrahydro-5aH-cyclopenta[4,5]furo[3,2-b]pyridin-5a-yl)benzonitrile] | 100 to 1000 nM
3 | N#Cc1ccc([C@@]23Oc4cc(Cl)cnc4[C@]2(O)[C@H](O)[C@@H](CN2CCCC2)[C@H]3c2ccccc2)cc1 (racemic) [41Fa, Rac-4-((5aR,6S,7R,8R,8aS)-3-chloro-8,8a-dihydroxy-6-phenyl-7-(pyrrolidin-1-ylmethyl)-6,7,8,8a-tetrahydro-5aH-cyclopenta[4,5]furo[3,2-b]pyridin-5a-yl)benzonitrile] | > 1000 nM
4 | N#Cc1ccc([C@@]23Oc4cc(Cl)cnc4[C@]2(O)[C@H](O)[C@H](CN2CCCC2)[C@H]3c2ccccc2)cc1 (racemic) [41Fb, rac-4-((5aR,6S,7S,8R,8aS)-3-chloro-8,8a-dihydroxy-6-phenyl-7-(pyrrolidin-1-ylmethyl)-6,7,8,8a-tetrahydro-5aH-cyclopenta[4,5]furo[3,2-b]pyridin-5a-yl)benzonitrile] | 100 to 1000 nM
5 | N#Cc1ccc([C@@]23Oc4cc(Cl)cnc4[C@]2(O)[C@@H](O)[C@H](CN2CCCC2)[C@H]3c2ccccc2)cc1 (racemic) [41Fc, rac-4-((5aR,6S,7S,8S,8aS)-3-chloro-8,8a-dihydroxy-6-phenyl-7-(pyrrolidin-1-ylmethyl)-6,7,8,8a-tetrahydro-5aH-cyclopenta[4,5]furo[3,2-b]pyridin-5a-yl)benzonitrile] | > 1000 nM
6 | COc1ccc([C@@]23Oc4cc(OC)ccc4[C@]2(N=[N+]=[N-])[C@H](O)[C@H](C(=O)N(C)C)[C@H]3c2ccccc2)cc1 (racemic) [42F, Rac-(1R,2R,3S,3aR,8bS)-8b-azido-1-hydroxy-6-methoxy-3a-(4-methoxyphenyl)-N,N-dimethyl-3-phenyl-2,3-dihydro-1H-cyclopenta[b]benzofuran-2-carboxamide] | 100 to 1000 nM
7 | COC(=O)[C@H]1[C@@H](O)[C@@]2(F)c3ncc(Cl)cc3O[C@@]2(c2ccc(Br)cc2)[C@@H]1c1ccccc1 (racemic) [43F, Rac-methyl (5aR,6S,7R,8R,8aS)-5a-(4-bromophenyl)-3-chloro-8a-fluoro-8-hydroxy-6-phenyl-5a,7,8,8a-tetrahydro-6H-cyclopenta[4,5]furo[3,2-b]pyridine-7-carboxylate] | > 1000 nM
8 | COc1ccc([C@@]23Oc4cc(OC)ccc4[C@]2(N)[C@H](O)[C@H](C(=O)N(C)C)[C@H]3c2ccccc2)cc1 (racemic) [44F, Rac-(1R,2R,3S,3aR,8bS)-8b-amino-1-hydroxy-6-methoxy-3a-(4-methoxyphenyl)-N,N-dimethyl-3-phenyl-2,3,3a,8b-tetrahydro-1H-cyclopenta[b]benzofuran-2-carboxamide] | > 1000 nM
9 | COc1ccc([C@@]23Oc4cc(OC)ccc4[C@]2(NC(C)=O)[C@H](O)[C@H](C(=O)N(C)C)[C@H]3c2ccccc2)cc1 (racemic) [45F, Rac-(1R,2R,3S,3aR,8bS)-8b-acetamido-1-hydroxy-6-methoxy-3a-(4-methoxyphenyl)-N,N-dimethyl-3-phenyl-2,3,3a,8b-tetrahydro-1H-cyclopenta[b]benzofuran-2-carboxamide] | > 1000 nM
10 | COC(=O)C(C[C@H]1C(=O)[C@@]2(O)c3ncc(Cl)cc3O[C@@]2(c2ccc(Br)cc2)[C@@H]1c1ccccc1)C(=O)OC (racemic) [46F, Rac-dimethyl 2-[[(5aR,6S,7R,8aR)-5a-(4-bromophenyl)-3-chloro-8a-hydroxy-8-oxo-6-phenyl-6,7-dihydrocyclopenta[4,5]furo[1,2-b]pyridin-7-yl]methyl]propanedioate] | > 1000 nM
11 | N#C[C@@H]1C[C@@H](c2ccccc2)[C@]2(c3ccc(Br)cc3)Oc3cc(Cl)cnc3[C@]12O (racemic) [47F, Rac-(5aR,6S,8S,8aR)-5a-(4-bromophenyl)-3-chloro-8a-hydroxy-6-phenyl-5a,7,8,8a-tetrahydro-6H-cyclopenta[4,5]furo[3,2-b]pyridine-8-carbonitrile] | > 1000 nM
12 | C#CC1C[C@@H](c2ccccc2)[C@]2(c3ccc(Br)cc3)Oc3cc(Cl)cnc3[C@]12O (mixture of isomers) [48F, Rac-(5aR,6S,8aR)-5a-(4-bromophenyl)-3-chloro-8-ethynyl-6-phenyl-5a,6,7,8-tetrahydro-8aH-cyclopenta[4,5]furo[3,2-b]pyridin-8a-ol] | > 1000 nM
13 | COC(=O)[C@@H]1[C@@H](c2ccccc2)[C@]2(c3ccc(Br)cc3)Oc3cc(Cl)cnc3[C@]2(O)[C@H]1C#N (racemic) [49F, Rac-methyl (5aR,6S,7R,8R,8aR)-5a-(4-bromophenyl)-3-chloro-8-cyano-8a-hydroxy-6-phenyl-5a,7,8,8a-tetrahydro-6H-cyclopenta[4,5]furo[3,2-b]pyridine-7-carboxylate] | 100 to 1000 nM
14 | COC(=O)[C@@H]1[C@@H](c2ccccc2)[C@]2(c3ccc(C#N)cc3)Oc3cc(Cl)cnc3[C@]2(O)[C@H]1C#N (racemic) [50F, Rac-methyl (5aR,6S,7R,8R,8aR)-3-chloro-8-cyano-5a-(4-cyanophenyl)-8a-hydroxy-6-phenyl-5a,7,8,8a-tetrahydro-6H-cyclopenta[4,5]furo[3,2-b]pyridine-7-carboxylate] | 100 to 1000 nM
15 | CN(C)C(=O)[C@@H]1[C@@H](c2ccccc2)[C@]2(c3ccc(C#N)cc3)Oc3cc(Cl)cnc3[C@]2(O)[C@H]1C#N (racemic) [51F, Rac-(5aR,6S,7R,8R,8aR)-3-chloro-8-cyano-5a-(4-cyanophenyl)-8a-hydroxy-N,N-dimethyl-6-phenyl-5a,7,8,8a-tetrahydro-6H-cyclopenta[4,5]furo[3,2-b]pyridine-7-carboxamide] | 100 to 1000 nM
16 | N#Cc1ccc([C@@]23Oc4cc(Cl)cnc4[C@]2(O)[C@@H](C#N)[C@H](C(N)=O)[C@H]3c2ccccc2)cc1 (racemic) [52F, Rac-(5aR,6S,7R,8R,8aR)-3-chloro-8-cyano-5a-(4-cyanophenyl)-8a-hydroxy-6-phenyl-5a,7,8,8a-tetrahydro-6H-cyclopenta[4,5]furo[3,2-b]pyridine-7-carboxamide] | 100 to 1000 nM
17 | O=C1N[C@H]2[C@@H](O1)[C@@]1(O)c3ncc(Cl)cc3O[C@@]1(c1ccc(Br)cc1)[C@@H]2c1ccccc1 (racemic) [53F, Rac-(3aR,3bS,8aR,9R,9aR)-8a-(4-bromophenyl)-6-chloro-3b-hydroxy-9-phenyl-1,3a,3b,8a,9,9a-hexahydro-2H-oxazolo[4″,5″:4′,5′]cyclopenta[1′,2′:4,5]furo[3,2-b]pyridin-2-one] | < 100 nM
18 | N#Cc1ccc([C@@]23Oc4cc(Cl)cnc4[C@]2(O)[C@@H]2OC(=O)N[C@@H]2[C@H]3c2ccccc2)cc1 (racemic) [54F, Rac-4-((3aR,3bS,8aR,9R,9aR)-6-chloro-3b-hydroxy-2-oxo-9-phenyl-1,2,3a,3b,9,9a-hexahydro-8aH-oxazolo[4″,5″:4′,5′]cyclopenta[1′,2′:4,5]furo[3,2-b]pyridin-8a-yl)benzonitrile] | 100 to 1000 nM
19 | OC[C@H]1[C@@H](O)[C@@]2(O)c3ncc(Cl)cc3O[C@@]2(c2ccc(Br)cc2)[C@@H]1c1ccccc1 (racemic) [55F, Rac-(5aR,6S,7S,8R,8aS)-5a-(4-bromophenyl)-3-chloro-7-(hydroxymethyl)-6-phenyl-5a,6,7,8-tetrahydro-8aH-cyclopenta[4,5]furo[3,2-b]pyridine-8,8a-diol] | 100 to 1000 nM
20 | N#Cc1ccc([C@@]23Oc4cc(Cl)cnc4[C@]2(O)[C@H](O)[C@H](CO)[C@H]3c2ccccc2)cc1 (racemic) [56F, Rac-4-((5aR,6S,7S,8R,8aS)-3-chloro-8,8a-dihydroxy-7-(hydroxymethyl)-6-phenyl-6,7,8,8a-tetrahydro-5aH-cyclopenta[4,5]furo[3,2-b]pyridin-5a-yl)benzonitrile] | > 1000 nM
21 | C[C@H]1[C@@H](O)[C@@]2(O)c3ncc(Cl)cc3O[C@@]2(c2ccc(Br)cc2)[C@@H]1c1ccccc1 (racemic) [57F, Rac-(5aR,6S,7R,8R,8aS)-5a-(4-bromophenyl)-3-chloro-7-methyl-6-phenyl-5a,6,7,8-tetrahydro-8aH-cyclopenta[4,5]furo[3,2-b]pyridine-8,8a-diol] | > 1000 nM
22 | COC(=O)C1(F)[C@@H](O)[C@@]2(O)c3ncc(Cl)cc3O[C@@]2(c2ccc(Br)cc2)[C@@H]1c1ccccc1 (mixture of isomers) [58F, Rac-methyl (5aR,6S,8S,8aS)-5a-(4-bromophenyl)-3-chloro-7-fluoro-8,8a-dihydroxy-6-phenyl-5a,7,8,8a-tetrahydro-6H-cyclopenta[4,5]furo[3,2-b]pyridine-7-carboxylate] | > 1000 nM
23 | COC(=O)C1(F)[C@@H](O)[C@@]2(O)c3ncc(Cl)cc3O[C@@]2(c2ccc(C#N)cc2)[C@@H]1c1ccccc1 (mixture of isomers) [59F, Rac-methyl (5aR,6S,8S,8aS)-3-chloro-5a-(4-cyanophenyl)-7-fluoro-8,8a-dihydroxy-6-phenyl-5a,7,8,8a-tetrahydro-6H-cyclopenta[4,5]furo[3,2-b]pyridine-7-carboxylate] | > 1000 nM
